Assay results taken from patent US20200131669A1, “CYCLIC PEPTIDE COMPOUND HAVING HIGH MEMBRANE PERMEABILITY, AND LIBRARY CONTAINING SAME” (Chugai Seiyaku Kabushiki Kaisha, priority 2017, published 2020).
Starred links: 1 amine or outer side, 2 acyl side, 3 side chain; linkers in the order of their positions; H or OH if unused. Positions of bridges follow the written chain, without caps; N, C: chain ends. Non-standard residues stand in square brackets, D forms with d. Residues, ends and D or L forms follow the SMILES beside them. ξ: configuration not given here. *: point of attachment. Phe(4-CHF2) = N[C@@H](Cc1ccc(C(F)F)cc1)C(=O)O; NMePhe(3-Cl) = CN[C@@H](Cc1cccc(Cl)c1)C(=O)O; X12 = CCCC[C@@H](O)[C@H](N[*:1])C(=O)[*:2]; X5 = O=C(C(CCc1noc(=O)[nH]1)N[*:1])[*:2]; Ethyl(2-morpholino) = C1CN(CC*)CCO1; NMeF = CN[C@@H](Cc1ccccc1)C(=O)O; NMeGABA = CN(CCCC(=O)[*:2])[*:1]; NMeI = CC[C@H](C)[C@H](NC)C(=O)O; ξThr(3R) = C[C@@H](O)C(N)C(=O)O; NMeL = CN[C@@H](CC(C)C)C(=O)O; Propyl(2R-OH) = C[C@@H](O)C*; NMeV = CN[C@H](C(=O)O)C(C)C; NMeAbu = CC[C@H](NC)C(=O)O; NMeA = CN[C@@H](C)C(=O)O; Piperidide = C1CCN(*)CC1; NBuGly = CCCCNCC(=O)O; ξS = NC(CO)C(=O)O; Sar = CNCC(=O)O; tBu = CC(C)(C)*; CHF2 = FC(F)*

Assay: Caco-2 membrane permeability, improved method as used in the following Examples (96-well, 20 to 24 h preincubation)
Type: in vitro ADME
Conditions: human, Caco-2, Caco-2
Method in brief: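 Caco-2 monolayers were grown three weeks and preincubated 20–24 h at 37 °C with compound in DMEM+FaSSIF (1% DMSO) apically. The assay then used compound in FaSSIF/HBSS (1% DMSO, pH 6.0) apically and HBSS with 4% BSA (pH 7.4) basally. Basal samples were taken at 180 min for LC/MS, and Papp (cm/sec) was calculated.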

Row | Structure (SMILES) | Papp A→B at 180 min
1 | CCCC[C@@H](O)[C@@H]1NC(=O)[C@H](CC(C)C)N(C)C(=O)[C@H](Cc2ccccc2)N(C)C(=O)[C@H](C)NC(=O)[C@H](Cc2ccccc2)N(C)C(=O)[C@H](CC(C)C)N(C)C(=O)[C@H](C(C)C)NC(=O)[C@H](C)N(C)C(=O)C[C@@H](C(=O)N2CCCCC2)NC(=O)[C@H](CC(C)C)N(C)C(=O)CN(C)C1=O [pd469] ([NMeA]V[NMeL][NMeF]A[NMeF][NMeL][X12][Sar][NMeL]D-Piperidide; lactam N-11) | 2.5 ×10⁻⁶ cm/s
2 | CC(=O)NCCCC[C@@H]1NC(=O)[C@H](CC(C)C)N(C)C(=O)[C@H](CC(C)C)NC(=O)[C@H](Cc2ccccc2)N(C)C(=O)[C@@H](C(C)C)NC(=O)C[C@@H](C(=O)N2CCCCC2)NC(=O)[C@H](C(C)C)N(C)C(=O)[C@H](Cc2ccccc2)N(C)C(=O)[C@H](COC(C)(C)C)NC(=O)[C@H](CC(C)C)N(C)C(=O)CN(C)C1=O [pd470] ([dV][NMeF]L[NMeL]K(Ac)[Sar][NMeL]S(tBu)[NMeF][NMeV]D-Piperidide; lactam N-11) | 2.1 ×10⁻⁶ cm/s
3 | CC(=O)NCCCC[C@@H]1NC(=O)[C@H](CC(C)C)N(C)C(=O)[C@H](CC(C)C)NC(=O)[C@H](Cc2ccccc2)N(C)C(=O)[C@@H](CC(C)C)NC(=O)C[C@@H](C(=O)N2CCCCC2)NC(=O)[C@H](C(C)C)N(C)C(=O)[C@H](Cc2ccccc2)N(C)C(=O)[C@H](COC(C)(C)C)NC(=O)[C@H](CC(C)C)N(C)C(=O)CN(C)C1=O [pd471] ([dL][NMeF]L[NMeL]K(Ac)[Sar][NMeL]S(tBu)[NMeF][NMeV]D-Piperidide; lactam N-11) | 2.1 ×10⁻⁶ cm/s
4 | CC(C)C[C@@H]1NC(=O)[C@H](C)N(C)C(=O)C[C@@H](C(=O)N2CCCCC2)NC(=O)[C@H](CC(C)C)N(C)C(=O)CN(C)C(=O)[C@H]([C@@H](C)O)NC(=O)[C@H](C(C)C)N(C)C(=O)[C@H](CC(C)C)N(C)C(=O)[C@H](Cc2ccc(C(F)F)cc2)NC(=O)[C@H](CC(C)C)N(C)C(=O)[C@H](CC(C)C)N(C)C1=O [pd474] ([NMeA]L[NMeL][NMeL][Phe(4-CHF2)][NMeL][NMeV]T[Sar][NMeL]D-Piperidide; lactam N-11) | 4.5 ×10⁻⁶ cm/s
5 | CC[C@H](C)[C@@H]1NC(=O)[C@H](CC(C)C)N(C)C(=O)CN(C)C(=O)C[C@@H](C(=O)N2CCCCC2)NC(=O)[C@H](C(C)C)N(C)C(=O)[C@H](Cc2ccc(C(F)F)cc2)NC(=O)[C@H](CC(C)C)N(C)C(=O)[C@H](Cc2ccccc2)N(C)C(=O)CN(C)C(=O)[C@H]([C@@H](C)O)NC(=O)[C@H](CC(C)C)N(C)C1=O [pd475] ([Sar][NMeL]I[NMeL]T[Sar][NMeF][NMeL][Phe(4-CHF2)][NMeV]D-Piperidide; lactam N-11) | 4.2 ×10⁻⁶ cm/s
6 | CC(C)C[C@@H]1NC(=O)C[C@@H](C(=O)N2CCCCC2)NC(=O)[C@H](CC(C)C)N(C)C(=O)[C@H](CC(C)C)N(C)C(=O)[C@H](Cc2ccc(OC(F)F)cc2)NC(=O)[C@H](C)N(C)C(=O)CN(C)C(=O)[C@H]([C@@H](C)O)NC(=O)[C@H](CC(C)C)N(C)C(=O)[C@H](C(C)C)NC(=O)[C@H](Cc2ccccc2)N(C)C1=O [pd477] (L[NMeF]V[NMeL]T[Sar][NMeA]Y(CHF2)[NMeL][NMeL]D-Piperidide; lactam N-11) | 2.2 ×10⁻⁶ cm/s
7 | CC(C)C[C@H]1C(=O)N[C@@H](Cc2ccc(OC(F)F)cc2)C(=O)N(C)[C@@H](CC(C)C)C(=O)N(C)[C@@H](Cc2ccccc2)C(=O)N[C@@H](COC(C)(C)C)C(=O)N(C)[C@@H](CC(C)C)C(=O)NC([C@@H](C)O)C(=O)N(C)[C@@H](C)C(=O)N(C)[C@@H](CC(C)C)C(=O)N[C@@H](C(=O)N2CCCCC2)CC(=O)N(C)CCCC(=O)N1C (stereo partly drawn) [pd478] ([NMeGABA][NMeL]Y(CHF2)[NMeL][NMeF]S(tBu)[NMeL][ξThr(3R)][NMeA][NMeL][dD]-Piperidide; lactam N-11) | 1.3 ×10⁻⁶ cm/s
8 | CCCCN1CC(=O)N(C)[C@@H](C)C(=O)N[C@H](C(=O)N2CCCCC2)CC(=O)N(C)[C@@H](C)C(=O)N[C@@H](Cc2ccc(OC(F)F)cc2)C(=O)N(C)[C@@H](CC(C)C)C(=O)N(C)[C@@H](Cc2ccccc2)C(=O)N[C@@H](CC(C)C)C(=O)N(C)[C@@H](CC(C)C)C(=O)N(C)[C@@H]([C@@H](C)CC)C(=O)N[C@@H]([C@@H](C)O)C1=O [pd479] ([NMeA]Y(CHF2)[NMeL][NMeF]L[NMeL][NMeI]T[NBuGly][NMeA]D-Piperidide; lactam N-11) | 1 ×10⁻⁶ cm/s
9 | CC[C@H](C)[C@H]1C(=O)N[C@@H]([C@@H](C)O)C(=O)N(C)CC(=O)N(C)[C@@H](CC(C)C)C(=O)N[C@@H](C(=O)N2CCCCC2)CC(=O)N(C)[C@@H](C)C(=O)N[C@@H](CC(C)C)C(=O)N(C)[C@@H](CC(C)C)C(=O)N(C)[C@@H](CC(C)C)C(=O)N[C@@H](Cc2ccc(OC(F)F)cc2)C(=O)N(C)[C@@H](C)C(=O)N1C [pd480] ([NMeA]L[NMeL][NMeL]Y(CHF2)[NMeA][NMeI]T[Sar][NMeL][dD]-Piperidide; lactam N-11) | 5 ×10⁻⁶ cm/s
10 | CC[C@H](C)[C@@H]1NC(=O)[C@H](CC(C)C)N(C)C(=O)CN(C)C(=O)C[C@@H](C(=O)N2CCCCC2)NC(=O)[C@H](C(C)C)N(C)C(=O)[C@H](Cc2ccc(OC(F)F)cc2)NC(=O)[C@H](CC(C)C)N(C)C(=O)[C@H](Cc2ccccc2)N(C)C(=O)CN(C)C(=O)[C@H]([C@@H](C)O)NC(=O)[C@H](CC(C)C)N(C)C1=O [pd481] ([Sar][NMeL]I[NMeL]T[Sar][NMeF][NMeL]Y(CHF2)[NMeV]D-Piperidide; lactam N-11) | 3.8 ×10⁻⁶ cm/s
11 | CCCCN1CC(=O)N(C)[C@@H](CC(C)C)C(=O)N[C@H](C(=O)N2CCCCC2)CC(=O)N(C)[C@@H](CC)C(=O)NC(COCCN2CCOCC2)C(=O)N(C)[C@@H](CC(C)C)C(=O)N(C)[C@@H](CC)C(=O)N[C@@H](C(C)C)C(=O)N(C)[C@@H](Cc2ccccc2)C(=O)N(C)[C@@H](CC(C)C)C(=O)N[C@@H]([C@@H](C)O)C1=O (stereo partly drawn) [pd483] ([NMeAbu][ξS](Ethyl(2-morpholino))[NMeL][NMeAbu]V[NMeF][NMeL]T[NBuGly][NMeL]D-Piperidide; lactam N-11) | 1.9 ×10⁻⁶ cm/s
12 | CCCCN1CC(=O)N(C)[C@@H](Cc2ccccc2)C(=O)N(C)[C@@H](CC(C)C)C(=O)N[C@@H](C(C)C)C(=O)N(C)[C@@H](CC(C)C)C(=O)N[C@H](C(=O)N2CCCCC2)CC(=O)N(C)CC(=O)N(C)[C@@H](CC(C)C)C(=O)NC(COCCN2CCOCC2)C(=O)N(C)[C@@H](CC(C)C)C(=O)N[C@@H]([C@@H](C)O)C1=O (stereo partly drawn) [pd484] ([Sar][NMeL][ξS](Ethyl(2-morpholino))[NMeL]T[NBuGly][NMeF][NMeL]V[NMeL]D-Piperidide; lactam N-11) | 1.8 ×10⁻⁶ cm/s
13 | CC[C@H](C)[C@@H]1NC(=O)[C@H](CC(C)C)N(C)C(=O)CCCN(C)C(=O)C[C@@H](C(=O)N2CCCCC2)NC(=O)[C@H](CC(C)C)N(C)C(=O)[C@H](CC(C)C)N(C)C(=O)[C@H](COCCN2CCOCC2)NC(=O)[C@H](CC(C)C)N(C)C(=O)[C@H](COC(C)(C)C)NC(=O)[C@H](CC)N(C)C(=O)[C@H](Cc2ccccc2)N(C)C1=O [pd485] ([NMeGABA][NMeL]I[NMeF][NMeAbu]S(tBu)[NMeL]S(Ethyl(2-morpholino))[NMeL][NMeL]D-Piperidide; lactam N-11) | 1.2 ×10⁻⁶ cm/s
14 | CCCCN1CC(=O)N(C)[C@@H](Cc2ccccc2)C(=O)N(C)[C@@H](CC(C)C)C(=O)N[C@@H](COC(C)(C)C)C(=O)N(C)[C@@H](CC(C)C)C(=O)N[C@H](C(=O)N2CCCCC2)CC(=O)N(C)CC(=O)N(C)[C@@H](Cc2cccc(Cl)c2)C(=O)N[C@@H](COC[C@@H](C)O)C(=O)N(C)[C@@H](CC(C)C)C(=O)N[C@@H]([C@@H](C)O)C1=O [pd490] ([Sar][NMePhe(3-Cl)]S(Propyl(2R-OH))[NMeL]T[NBuGly][NMeF][NMeL]S(tBu)[NMeL]D-Piperidide; lactam N-11) | 1 ×10⁻⁶ cm/s

Same assay, conditions: human; Papp, Caco-2 membrane permeability, improved method; read-out: Caco-2

Row | Structure (SMILES) | Papp A→B at 180 min
15 | CC[C@H](C)[C@H]1C(=O)N[C@@H]([C@@H](C)O)C(=O)N(C)CC(=O)N(C)[C@@H](CC)C(=O)N[C@H](C(=O)N2CCCCC2)CC(=O)N(C)[C@@H](C)C(=O)N[C@@H](Cc2ccc(C(F)F)cc2)C(=O)N(C)[C@@H](CC(C)C)C(=O)N(C)[C@@H](Cc2ccccc2)C(=O)N[C@@H](CC(C)C)C(=O)N(C)[C@@H](CC(C)C)C(=O)N1C [pd473] ([NMeA][Phe(4-CHF2)][NMeL][NMeF]L[NMeL][NMeI]T[Sar][NMeAbu]D-Piperidide; lactam N-11) | 4.5 ×10⁻⁶ cm/s
16 | CCCCN1CC(=O)N(C)[C@@H](CC(C)C)C(=O)N[C@H](C(=O)N2CCCCC2)CC(=O)N(C)[C@@H](CC)C(=O)N[C@@H](CC(C)C)C(=O)N(C)[C@@H](CC(C)C)C(=O)N(C)[C@@H](Cc2ccccc2)C(=O)NC(CCc2noc(=O)[nH]2)C(=O)N(C)[C@@H](CC(C)C)C(=O)N(C)[C@@H](CC(C)C)C(=O)NC([C@@H](C)O)C1=O (stereo partly drawn) [pd487] ([NMeAbu]L[NMeL][NMeF][X5][NMeL][NMeL][ξThr(3R)][NBuGly][NMeL]D-Piperidide; lactam N-11) | 2.2 ×10⁻⁶ cm/s
17 | CCCCN1CC(=O)N(C)[C@@H](Cc2ccccc2)C(=O)N(C)[C@@H](CC(C)C)C(=O)N[C@@H](CC(C)C)C(=O)N(C)[C@@H](CC(C)C)C(=O)N[C@H](C(=O)N2CCCCC2)CC(=O)N(C)CC(=O)N(C)[C@@H](CC(C)C)C(=O)N[C@@H](C(C)C)C(=O)N(C)[C@@H](CC(C)C)C(=O)NC(CCc2noc(=O)[nH]2)C1=O (stereo partly drawn) [pd488] ([Sar][NMeL]V[NMeL][X5][NBuGly][NMeF][NMeL]L[NMeL]D-Piperidide; lactam N-11) | 1.6 ×10⁻⁶ cm/s
18 | CC(C)C[C@H]1C(=O)N[C@@H](COC(C)(C)C)C(=O)N(C)[C@@H](Cc2ccccc2)C(=O)N(C)[C@@H](CC(C)C)C(=O)N[C@H](C(=O)N2CCCCC2)CC(=O)N[C@@H](C(C)C)C(=O)N(C)[C@@H](Cc2ccccc2)C(=O)N[C@@H](COC[C@@H](C)O)C(=O)N(C)[C@@H](CC(C)C)C(=O)N[C@@H](C(C)C)C(=O)N(C)CC(=O)N1C [pd492] (V[NMeF]S(Propyl(2R-OH))[NMeL]V[Sar][NMeL]S(tBu)[NMeF][NMeL]D-Piperidide; lactam N-11) | 2.5 ×10⁻⁶ cm/s
